Test results published in patent US20220395481A1, “BACTERIOSTATIC COMPOSITION, PREPARATION METHOD THEREFOR, AND USE THEREOF” (SHENZHEN EULIKAN BIOTECHNOLOGY CO., LTD, priority 2020, published 2022).
Read-outs that look alike come from different tables or passages of the source.

Legend:
lactobacilli = settings: cited from earlier work
[1] = system: Candida albicans ATCC 10231; test: Inhibition rate after 20 minutes of action, Appendix C of GB 15979-2002; type: cell-based
From the text: “Inhibition rate” is the inhibition rate of bacteriostatic agents against Escherichia coli, Staphylococcus aureus, Candida albicans, or other microorganisms obtained by referring to the test methods and judgment criteria in Appendix C of GB 15979-2002 Hygienic Standard for Disposable Sanitary Products.
“Bacteriostatic effect” refers to the inhibition of bacteria, fungi, or other microorganisms by bacteriostatic agents.
The percentage concentration of each ingredient therein was the weight percentage concentration % (w/w), and the pH value of each group was 3.8.
The percentage concentration of each ingredient therein was the weight percentage concentration % (w/w), and the pH value of each group was 4.0.
According to the method described in Appendix C of GB 15979-2002 Hygienic Standard for Disposable Sanitary Products, aqueous solutions containing different ingredients were studied for their bacteriostatic effects of 20 minutes of action against Candida albicans ATCC 10231, the percentage concentration of each ingredient therein was the weight percentage concentration % (w/w), and the pH value of each group was 3.9. […]

## CCC(=O)[O-].[Na+] [sodium propionate]
lactobacilli; concentration 0.40% (w/v)
  growth of lactobacilli: not significantly inhibited
lactobacilli; concentration 0.50% (w/v)
  growth of lactobacilli: not significantly inhibited
lactobacilli; concentration 0.70% (w/v)
  growth of lactobacilli: inhibited

## OCCc1ccccc1 [phenethyl alcohol, phenethyl alcohol (2-phenylethanol)]
lactobacilli; concentration 0.40% (w/v)
  growth of lactobacilli: not significantly inhibited
lactobacilli; concentration 0.50% (w/v)
  growth of lactobacilli: inhibited

## N[C@@H](CCC(=O)O)C(=O)O [0.55% glutamic acid, glutamic acid]
[1]; text on Table 26, pH 4.0, Group 1 compared to Group 2
  influence on the bacteriostatic effect of the solution containing 0.14% malic acid, 1.46% adipic acid, 0.20% sodium benzoate, 1.67% propionic acid, and 0.40% phenethyl alcohol against Candida albicans: did not affect the bacteriostatic effect

## O=C([O-])c1ccccc1.[Na+] [0.25% sodium benzoate, sodium benzoate]
[1]; Table 12, single ingredient solutions, pH 3.8, 20 minutes of action
  Inhibition rate: 3.73%
